Reference: patent US20120225054A1, “USE OF LEGUME EXTRACTS FOR INDUCING AND ENHANCING AUTOPHAGY AND APOPTOSIS AND FOR PREVENTING AND/OR TREATING CANCERS” (HERBAL BON BIOTECH INC., priority 2011, published 2012)

What was measured:
human HCC Hep 3B cells = experiment: Flow cytometric analysis of apoptotic cells with autophagy inhibitor, Hep 3B; format: cell-based; settings: 10 mM 3-MA pretreatment 2 h, SC-1 265 μg/ml
Protocol: (§1) Cells (2×10^5) grown in 6-well plates were pretreated with or without 10 mM of autophagy inhibitor 3-methyladenine (3-MA; Sigma, St. Louis, Mo.) for 2 h prior to the addition of SC-1 (265 μg/ml). The cells were harvested, centrifuged at 800g for 10 min at 4° C., and resuspended in HBS containing 40 μg/ml of propidium iodide and […] RNase A for 30 min at 37° C. in the dark. Measurement of apoptotic cells was performed using a FACScan flow cytometer (Becton Dickison, Mountain View, Calif., USA).
To confirm the importance of autophagy in the proceeding of apoptosis, autophagy inhibitor 3-MA was added to the cell culture and the relative portion of apoptotic cells was analyzed by flow cytometry. […] In FIG. 5B, it inhibited the fermented soybean extracts-induced apoptosis of Hep 3B cells approximately 42% at 48 h and 60% at 72 h. Therefore, it would not be surprised that the induction of apoptosis was observed only in combination with autophagy in tumors obtained from the mice received the fermented soybean extracts for a relatively long period of time (FIGS. 4A and B).

[1] = test system: murine hepatoma ML-1 cells; experiment: Flow cytometric analysis of apoptotic cells with autophagy inhibitor, ML-1; format: cell-based; settings: 10 mM 3-MA pretreatment 2 h, SC-1 265 μg/ml
Protocol: Murine ML-1 cells obtained from Dr. Huan-Yao Lei (Department of Microbiology and Immunology, Medical College, National Cheng Kung University, Tainan, Taiwan) were cultured in complete Dulbecco's modified Eagle medium (DMEM; GIBCO BRL, Grand Island, N.Y.) containing 10% fetal bovine serum (GIBCO BRL), 2 mM glutamine (Sigma, St. Louis, Mo.), 100 U/ml penicillin (Sigma), and 100 μg/ml streptomycin (Sigma) at 37° C. in a 5% CO2 humidified atmosphere.
as §1
To confirm the importance of autophagy in the proceeding of apoptosis, autophagy inhibitor 3-MA was added to the cell culture and the relative portion of apoptotic cells was analyzed by flow cytometry. […] In FIG. 5B, it inhibited the fermented soybean extracts-induced apoptosis of Hep 3B cells approximately 42% at 48 h and 60% at 72 h. […]

`Cn1cnc(N)c2ncnc1-2` [3-MA, 3-methyladenine] was tested. Which “inhibition of fermented soybean extracts-induced apoptosis” value (shortened to “inhibition”) (human HCC Hep 3B cells; 48 h) did it give?
The value was “approximately 42%”.

What about the “inhibition” value (human HCC Hep 3B cells; 72 h) of the same molecule?
Its value is roughly 60%.

What about the “inhibition” value ([1]; 48 h) of the same molecule?
Its value is “approximately 45%”.

And the “inhibition” value ([1]; 72 h)?
The value was roughly 52%.
